No end group written: not given here.
Assays:
parvovirus peptide [1] = test: Rabbit immunisation with parvovirus peptide, TGF-29 dose and Titermax adjuvant, serum ELISA (Example 3); format: in vivo, rabbits; conditions: bleeding T3 (6 weeks after first immunisation); 20 ug TGF-29 + 100 ug parvovirus peptide + Titermax (preparation Iris)
Experimental: Both preparations were subcutaneously injected into 2 groups of rabbits. Each injected dose was 0, 1 mL and the preparations for a resulting volume between 0,4 and 0,5 mL was made as follows:
The rabbits were then immunised according to the normal standard immunisation procedure for antibody production in rabbits at a legal laboratory animal facility.
(§1) Before immunisation, a pre-immunisation serum sample (T0) of each rabbit was collected. Before each of the following immunisations (given at 2 week intervals) an immune serum sample (T1, T2, or T3) was collected from each rabbit.
(§2) The serum samples were analysed on an ELISA plate according to standard laboratory operations: Coating the plate bottom with parvo virus peptide derivative overnight, washings, incubation with serial dilutions of all serum samples, washings, incubation with HRP-Goat anti Rabbit Ig, washings, incubation with substrate, stop reaction with acid, and reading of the plate.

parvovirus peptide [2] = test: Rabbit immunisation with Parv or Parv+TGF-29, serum ELISA for antibody titre (Example 1); format: in vivo, rabbits; conditions: immune serum samples vs corresponding T0 sera; 3 subcutaneous immunisations at 2 week intervals; freunds incomplete adjuvant
Experimental: Both preparations were subcutaneously injected into 2 groups of rabbits. The content of each injected dose of 0.2 mL were:
The rabbits were immunised by subcuteous injection according to normal standard immunisation procedures for antibody production in rabbits at a legal laboratory animal facility.
(§3) Before immunisation, a pre-immunisation serum sample (T0) of each rabbit were collected. Two weeks after the last of 3 immunisations (given at 2 week intervals) an immune serum sample (T1) was collected from each rabbit. Hereafter further immune serum samples were collected T2 (4 weeks after T1); T3 (four weeks after T2) etc.
as §2

[3] = Clinical signs of immunised rabbits; format: in vivo; conditions: Example 1; subcutaneous, 3 immunisations at 2 week intervals
From the text: as §3
Before immunisation, a pre-immunisation serum sample (T0) of each rabbit were collected. Before each of the following immunisations (given at 2 week intervals) an immune serum sample (T1, T2, T3 or T4 ) was collected from each rabbit. The serum sampling frequency is higher compared with example 1.
as §1

| Substance | titer to the parvovirus peptide compared with the corresponding T0 serum (parvovirus peptide [1]) | titer to the parvovirus peptide, rank among all bleedings of the example (parvovirus peptide [1]) | antibody titre to the parvovirus peptide (parvovirus peptide [2]) | unusual clinical signs [3] |
| --- | --- | --- | --- | --- |
| ALDAAYCFRNVQDNCCLRPLYIDFKRDLG (cysteine pairing not given here) [TGF-29, N-terminal 29 amino acid fragment of mature TGF-β] | more than three 5-fold serial antiserum dilutions better | highest titer |  |  |
| Ac-CDGAVQPDGGQPAVRNER-NH2 [Parv] |  |  | Non-detectable or less antibody titre to the parvovirus peptide than in the corresponding T0 sera | None of the rabbits showed any unusual clinical signs |

From patent US20020160012A1, “Vaccine chip technology exploiting immunostimulating fragment of TGF-BETA” (priority 2000, published 2002)
